For assay [1], the target named is Epidermal growth factor receptor (Homo sapiens, UniProt P00533, L858R). As to the kind of experiment: Binding affinity to EGFR L858R mutant (unknown origin) assessed as apparent inhibition constant in presence of ATP by TR-FRET assay. As to conditions: read-out: Ki(app).
Assay [2] relates to Epidermal growth factor receptor (Homo sapiens), P00533 [L858R,T790M].
Assay [3] is filed under the species Homo sapiens. As to the kind of experiment: Selectivity ratio, ratio of Ki for human wild type EGFR to Ki for EGFR L858R mutant (unknown origin).
The subject of assay [4] is Epidermal growth factor receptor (Homo sapiens), P00533 [L858R].
Assay [5] shares this test system. This is another data set of the same source.

The text below walks through data of ChEMBL document CHEMBL5532668, “Pitfalls and Considerations in Determining the Potency and Mutant Selectivity of Covalent Epidermal Growth Factor Receptor Inhibitors” (J Med Chem, 2024).

pKi: −log10 of the molar value.

Chain of Epidermal growth factor receptor (Homo sapiens), P00533 [L858R] (P00533 whole entry L858R): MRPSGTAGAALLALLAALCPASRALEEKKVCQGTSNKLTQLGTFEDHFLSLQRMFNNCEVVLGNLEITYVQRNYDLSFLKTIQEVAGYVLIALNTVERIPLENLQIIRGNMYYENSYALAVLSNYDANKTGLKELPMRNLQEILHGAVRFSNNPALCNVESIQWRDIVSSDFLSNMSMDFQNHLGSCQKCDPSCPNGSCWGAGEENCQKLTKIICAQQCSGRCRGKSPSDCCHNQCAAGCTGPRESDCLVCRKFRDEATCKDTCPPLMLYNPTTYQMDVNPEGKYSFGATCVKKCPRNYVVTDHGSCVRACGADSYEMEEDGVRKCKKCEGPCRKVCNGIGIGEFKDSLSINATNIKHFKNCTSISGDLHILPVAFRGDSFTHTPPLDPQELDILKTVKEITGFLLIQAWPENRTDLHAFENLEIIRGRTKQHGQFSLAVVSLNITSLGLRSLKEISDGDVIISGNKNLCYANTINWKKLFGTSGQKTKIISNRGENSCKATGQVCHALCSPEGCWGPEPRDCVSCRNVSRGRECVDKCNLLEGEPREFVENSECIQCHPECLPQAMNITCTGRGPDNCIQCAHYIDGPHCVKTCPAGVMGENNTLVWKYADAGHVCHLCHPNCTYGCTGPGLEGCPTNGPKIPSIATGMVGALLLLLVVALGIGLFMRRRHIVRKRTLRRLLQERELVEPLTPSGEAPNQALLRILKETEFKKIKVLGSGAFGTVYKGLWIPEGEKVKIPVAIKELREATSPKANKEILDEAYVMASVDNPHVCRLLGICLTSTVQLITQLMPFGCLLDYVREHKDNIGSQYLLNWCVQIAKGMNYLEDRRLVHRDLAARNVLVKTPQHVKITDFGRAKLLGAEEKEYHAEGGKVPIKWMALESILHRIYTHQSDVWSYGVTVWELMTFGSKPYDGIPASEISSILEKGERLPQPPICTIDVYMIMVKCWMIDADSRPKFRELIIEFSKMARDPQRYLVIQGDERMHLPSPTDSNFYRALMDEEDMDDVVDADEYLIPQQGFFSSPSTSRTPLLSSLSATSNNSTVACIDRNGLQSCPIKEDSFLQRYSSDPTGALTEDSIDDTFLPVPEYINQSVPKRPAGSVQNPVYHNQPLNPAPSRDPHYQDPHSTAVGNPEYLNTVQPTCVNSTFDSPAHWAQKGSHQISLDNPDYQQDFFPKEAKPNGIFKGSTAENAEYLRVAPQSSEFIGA
Chain of Epidermal growth factor receptor (P00533 25-1210 L858R limits assumed): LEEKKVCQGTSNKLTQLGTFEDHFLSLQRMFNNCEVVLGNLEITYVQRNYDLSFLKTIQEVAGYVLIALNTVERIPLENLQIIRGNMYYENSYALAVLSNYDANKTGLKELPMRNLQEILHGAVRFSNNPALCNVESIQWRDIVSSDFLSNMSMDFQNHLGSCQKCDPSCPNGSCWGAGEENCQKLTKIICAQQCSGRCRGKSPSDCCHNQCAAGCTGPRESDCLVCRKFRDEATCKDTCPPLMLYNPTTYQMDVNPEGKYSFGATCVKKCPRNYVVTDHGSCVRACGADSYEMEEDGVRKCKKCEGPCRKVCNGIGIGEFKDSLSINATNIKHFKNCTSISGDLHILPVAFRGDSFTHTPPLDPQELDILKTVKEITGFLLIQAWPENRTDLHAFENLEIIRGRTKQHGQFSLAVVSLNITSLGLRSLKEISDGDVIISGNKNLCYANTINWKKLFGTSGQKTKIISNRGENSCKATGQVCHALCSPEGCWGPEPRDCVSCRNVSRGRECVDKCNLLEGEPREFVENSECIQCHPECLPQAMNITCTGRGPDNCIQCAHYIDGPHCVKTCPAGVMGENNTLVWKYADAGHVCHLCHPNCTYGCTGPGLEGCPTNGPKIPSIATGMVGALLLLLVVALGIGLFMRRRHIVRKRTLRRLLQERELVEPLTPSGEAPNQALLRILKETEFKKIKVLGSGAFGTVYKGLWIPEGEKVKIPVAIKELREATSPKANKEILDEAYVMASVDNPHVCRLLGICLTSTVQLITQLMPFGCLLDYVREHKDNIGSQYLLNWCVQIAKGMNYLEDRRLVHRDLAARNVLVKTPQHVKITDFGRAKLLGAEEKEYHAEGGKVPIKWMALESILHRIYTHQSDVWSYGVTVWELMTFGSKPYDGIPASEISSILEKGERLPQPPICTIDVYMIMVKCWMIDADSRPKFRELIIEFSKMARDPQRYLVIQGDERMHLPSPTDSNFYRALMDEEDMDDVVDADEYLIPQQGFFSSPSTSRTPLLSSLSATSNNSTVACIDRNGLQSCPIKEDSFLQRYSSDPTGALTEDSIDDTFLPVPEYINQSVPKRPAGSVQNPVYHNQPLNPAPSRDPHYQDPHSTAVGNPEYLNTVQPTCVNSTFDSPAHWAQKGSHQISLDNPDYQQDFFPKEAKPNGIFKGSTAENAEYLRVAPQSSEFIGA
Chain of Epidermal growth factor receptor (Homo sapiens), P00533 [L858R,T790M] (P00533 whole entry T790M/L858R, looked up): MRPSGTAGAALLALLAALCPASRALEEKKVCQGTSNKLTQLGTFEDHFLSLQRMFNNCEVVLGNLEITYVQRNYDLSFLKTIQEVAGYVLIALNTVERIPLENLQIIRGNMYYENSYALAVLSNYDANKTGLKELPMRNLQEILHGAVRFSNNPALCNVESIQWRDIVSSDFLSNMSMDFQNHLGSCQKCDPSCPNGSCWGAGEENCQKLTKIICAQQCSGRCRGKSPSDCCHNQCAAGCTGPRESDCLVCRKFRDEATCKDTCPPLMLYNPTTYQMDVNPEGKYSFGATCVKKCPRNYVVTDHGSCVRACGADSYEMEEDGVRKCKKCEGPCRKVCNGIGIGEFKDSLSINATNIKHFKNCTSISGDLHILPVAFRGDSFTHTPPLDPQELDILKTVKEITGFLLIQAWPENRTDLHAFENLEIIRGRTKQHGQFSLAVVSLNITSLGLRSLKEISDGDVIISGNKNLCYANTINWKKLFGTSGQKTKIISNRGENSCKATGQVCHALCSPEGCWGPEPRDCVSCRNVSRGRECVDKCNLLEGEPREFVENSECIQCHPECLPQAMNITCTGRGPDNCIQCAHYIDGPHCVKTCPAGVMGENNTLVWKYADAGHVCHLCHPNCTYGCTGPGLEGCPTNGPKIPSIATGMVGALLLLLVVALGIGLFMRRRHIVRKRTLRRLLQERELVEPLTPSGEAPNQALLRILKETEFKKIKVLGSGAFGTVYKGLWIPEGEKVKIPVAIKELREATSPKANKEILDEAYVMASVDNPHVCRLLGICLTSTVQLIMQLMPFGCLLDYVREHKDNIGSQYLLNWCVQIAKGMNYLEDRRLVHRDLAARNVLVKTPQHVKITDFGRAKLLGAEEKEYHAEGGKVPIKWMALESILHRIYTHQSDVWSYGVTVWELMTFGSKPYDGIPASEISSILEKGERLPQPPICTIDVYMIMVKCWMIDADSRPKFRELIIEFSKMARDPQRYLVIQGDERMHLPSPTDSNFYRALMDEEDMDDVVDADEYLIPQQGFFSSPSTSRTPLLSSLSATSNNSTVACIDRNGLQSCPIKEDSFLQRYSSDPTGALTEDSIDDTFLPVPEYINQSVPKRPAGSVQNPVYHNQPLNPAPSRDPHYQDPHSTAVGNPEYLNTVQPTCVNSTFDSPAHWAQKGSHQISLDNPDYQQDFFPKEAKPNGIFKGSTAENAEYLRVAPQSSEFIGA

A word on the pKi: it is the Ki on a negative log10 scale, so that one unit is a factor of ten. With `C=CC(=O)Nc1cc(Nc2nccc(-n3cc(CN(C)C)c(-c4ccccc4)n3)n2)c(OC)cc1N1CCOCC1` [LAZERTINIB], in assay [1], the pKi is 8.33. Further, the Kinact in assay [2] was 3.92 10^-3/s; in assay [4], 5.88 10^-3/s; in assay [5], 0.00971 s⁻¹. The Ratio Ki in assay [3] was found to be 0.358.
